From patent EP4567032A1, “KIF18A INHIBITOR COMPOUND, AND PHARMACEUTICAL COMPOSITION AND PREPARATION METHOD THEREFOR AND USE THEREOF” (Changchun Genescience Pharmaceutical Co., Ltd., priority 2022, dated 2024) come the findings set out here.

Structures are written as SMILES.

One assay concerns OVCAR-3 cells. Briefly: imaging-based nuclear count analysis (NCA) in OVCAR-3 cells. It counts as cell-based. The conditions noted are these: Homo sapiens, 96 h, cultured 4 days, Hoechst 33342 nuclear count, 0.1% DMSO. How it is done:
Test name: imaging-based nuclear count analysis (NCA) in OVCAR-3 cells
• a) When the cell confluence reached 80%-90%, the cells were treated. • b) The cells were resuspended in a medium and then counted and diluted at a desired density. • c) A cell suspension containing appropriate cells was added to the 384-well plate at 30 µL/well: 600 cells/well.
• a) 30 µL of 8% fixative (final concentration 4%) was added and the plate was incubated at room temperature for 30 min. • b) The plate was centrifuged at 1000RPM for 30s. • c) The plate was washed twice with 60 µl/well PBS. • d) After immobilization, the cells were permeabilized and stained in 60 µL of a wash buffer containing 2 µg/mL Hoechst 33342 DNA dye (1% BSA, 0.2% Triton X-100, 1X PBS). • e) The plate was sealed and incubated at room temperature in the dark for 1 h. • f) It was washed with PBS 3 times. • g) 50µLPBS/well was added and the plate was scanned using HCS. • h) Data acquisition and detection
High-reading control wells: cells + 30 nL DMSO; low-reading control wells: 10 µM AM-5308.
IC50 (nM) was calculated using GraphPad Prism 8 software and the effect-dose curves of the compound were plotted. Table 1 Bioactivity data of the compound of the present application
What is called IC50 is the concentration that gives 50% inhibition. A lower IC50 goes with greater potency. As to `O=C(Nc1cccc2cc(Cl)ccc12)c1ccc(NS(=O)(=O)CCO)cc1N1CCC2(CC1)CC2` [Compound 5, {6-azaspiro[2.5]octan-6-yl}-N-(6-chloronaphthalen-1-yl)-4-(2-hydroxyethanesulfonylamino) benzamide], half-maximal inhibition (IC50) required 369 nM.

For `O=C(Nc1cccc2c1nc1n2CCC1(F)F)c1ccc(NS(=O)(=O)CCO)cc1N1CCC2(CC1)CC2` [Compound 94, N-(3,3-difluoro-2,3-dihydro-1H-benzo[d]pyrrolo[1,2-a]imidazol-5-yl)-4-(2-hydroxyethanesulfonylamino)-2-(6-azaspiro[2.5]octan-6-yl)benzamide], the 50% inhibitory concentration (IC50) was 36.1 nM.

`Cc1ccc2c(NC(=O)c3ccc(NS(=O)(=O)CCO)cc3N3CCC4(CC3)CC4)cccc2c1` [Compound 4, 2-{6-azaspiro[2.5]octan-6-yl}-4-(2-hydroxyethanesulfonylamino) -N-(6-methylnaphthalen-1-yl)benzamide] gave a half-maximal inhibitory concentration (IC50) of 478 nM.

`O=C(Nc1ccnc2cc(C3CC3)ccc12)c1ccc(NS(=O)(=O)CCO)cc1N1CCC2(CC1)CC2` [Compound 112, 2-{6-azaspiro[2.5]octan-6-yl}-N-(7-cyclopropylquinolin-4-yl)-4-(2-hydroxyethylsulfonylamino)benzamide] registered a half-inhibitory concentration (IC50) of 117 nM.

`O=C(Nc1cccc2ccccc12)c1ccc(NS(=O)(=O)CCO)cc1N1CCC2(CC1)CC2` [Compound 2, 2-{6-azaspiro[2.5]octan-6-yl}-4-(2-hydroxyethanesulfonylamino) -N-(naphthalen-1-yl)benzamide]: half-maximal inhibition (IC50) was put at 568 nM.

In turn, `CC1CCn2c1nc1c(NC(=O)c3ccc(NS(=O)(=O)CCO)cc3N3CCC4(CC3)CC4)cccc12` (stereo not shown) [Compound 106, 4-(2-hydroxyethanesulfonylamino) -N-(3-methyl-2,3-dihydro-1H-benzo[d]pyrrolo[1,2-a]imidazol-5-yl)-2-(6-azaspiro[2.5]octan-6-yl)benzamide] returned an IC50 of 125 nM.

`O=C(Nc1cccc2c1nc1n2CCC1(F)F)c1ccc(NS(=O)(=O)CCO)cc1C1=CCC2(CC1)CC2` [Compound 90, N-(3,3-difluoro-2,3-dihydro-1H-benzo[d]pyrrolo[1,2-a]imidazol-5-yl)-4-(2-hydroxyethanesulfonylamino)-2-(spiro[2.5]oct-5-en-6-yl)benzamide] showed an IC50 of 71.2 nM.

Consider `O=C(Nc1cccc2ccc(F)cc12)c1ccc(NS(=O)(=O)CCO)cc1N1CCC2(CC1)CC2` [Compound 6, 2-{6-azaspiro[2.5]octan-6-yl}-N-(7-fluoronaphthalen-1-yl)-4-(2-hydroxyethanesulfonylamino) benzamide], for which the half-inhibitory concentration (IC50) is 976 nM.

`O=C(Nc1cccc2c1CCC1(CCCC1)C2)c1ccc(NS(=O)(=O)CCO)cc1N1CCC2(CC1)CC2` [Compound 51, 2-{6-azaspiro[2.5]octan-6-yl}-N-{3',4'-dihydro-1'H-spiro[cyclopentane-1,2'-naphthalen]-5'-yl}-4-(2-hydroxyethanesulfonylamino)benzamide] showed an IC50 of 258 nM.

The compound `Cc1cc(NC(=O)c2ccc(NS(=O)(=O)CCO)cc2N2CCC3(CC2)CC3)nc2c1nc1n2CC(F)(F)CC1` [Compound 64, N-(8,8-difluoro-4-methyl-pyrido[2,3-d]imidazo[1,2-a]piperidin-2-yl)-4-(2-hydroxyethanesulfonylamino)-2-(6-azaspiro[2.5]octan-6-yl)benzamide] came in with an IC50 of 763 nM.

Consider `O=C(Nc1cccc2c1CCC1(CC1)C2)c1ccc(NS(=O)(=O)CCO)cc1N1CCC2(CC1)CC2` [Compound 56, 2-{6-azaspiro[2.5]octan-6-yl}-N-{3',4'-dihydro-1'H-spiro[cyclopropane-1,2'-naphthalen]-5'-yl}-4-(2-hydroxyethanesulfonylamino)benzamide], for which the IC50 came to 73.1 nM.

Consider `O=C(Nc1cc(F)cc2c1nc1n2[C@H]2CC[C@@H]1C2)c1ccc(NS(=O)(=O)CCO)cc1N1CCC2(CC1)CC2` [Compound 113a, N-((1S,4R)-8-fluoro-1,2,3,4-tetrahydro-1,4-methylenebenzo[4,5]imidazo [1,2-a]pyridin-6-yl)4-(2-hydroxyethanesulfonylamino) -2-(6-azaspiro[2.5]octan-6-yl)benzamide], for which inhibition was half-maximal at 97.9 nM (IC50).

`Cc1cc(NC(=O)c2ccc(NS(=O)(=O)CCO)cc2N2CCC3(CC2)CC3)c2nc3n(c2c1)[C@H]1CC[C@@H]3C1` [Compound 99, 4-(2-hydroxyethanesulfonylamino)-N-((1S,4R)-8-methyl-1,2,3,4-tetrahydro-1,4-methylenebenzo[4,5]imidazo[1,2-a]pyridin-6-yl)-2-(6-azaspiro[2.5]octan-6-yl)benzamide] came in with a half-inhibitory concentration (IC50) of 109 nM.

With `O=C(Nc1cccc2c1oc1ccccc12)c1ccc(NS(=O)(=O)CCO)cc1N1CCC2(CC1)CC2` [Compound 111, N-(dibenzo[b,d]furan-4-yl)-4-(2-hydroxyethanesulfonylamino)-2-(6-azaspiro[2.5]octan-6-yl)benzamide], the IC50 was 161 nM.

As for `COc1ccc2c(NC(=O)c3ccc(NS(=O)(=O)CCO)cc3N3CCC4(CC3)CC4)ccnc2c1` [Compound 95], the half-maximal inhibitory concentration (IC50) turned out to be 98.9 nM.

In turn, `O=C(Nc1cccc2cc(C(F)(F)F)ccc12)c1ccc(NS(=O)(=O)CCO)cc1N1CCC2(CC1)CC2` [Compound 7, 2-{6-azaspiro[2.5]octan-6-yl}-4-(2-hydroxyethanesulfonylamino) -N-(6-(trifluoromethyl)naphthalen-1-yl)benzamide] had an IC50 of 458 nM.

Regarding `O=C(Nc1cccc2c1nc1n2CCCCC1)c1ccc(NS(=O)(=O)CCO)cc1C1=CCC2(CC1)CC2` [Compound 108, 4-(2-hydroxyethanesulfonylamino) -2-(spiro[2.5]oct-5-en-6-yl)-N-(7,8,9,10-tetrahydro-6H-benzo[4,5]imidazo[1,2-a]azepin-4-yl)benzamide], the IC50 was determined as 183 nM.

The same assay, now with this note: cultured 4 days, Hoechst 33342 nuclear count, 0.1% DMSO.
With `O=C(Nc1cccc2c1nc1n2C2CCC1CC2)c1ccc(NS(=O)(=O)CCO)cc1N1CCC2(CC1)CC2` [Compound 100, 4-(2-hydroxyethanesulfonylamino)-2-(6-azaspiro[2.5]octan-6-yl)-N-(1,2,3,4-tetrahydro-1,4-ethylbenzo[4,5]imidazo[1,2-a]pyridin-6-yl)benzamide], it took 110 nM to reach half-maximal inhibition (IC50).

Another assay concerns the target T1, KIF18A (Homo sapiens, UniProt Q8NI77).
T1 sequence (Q8NI77 1-898): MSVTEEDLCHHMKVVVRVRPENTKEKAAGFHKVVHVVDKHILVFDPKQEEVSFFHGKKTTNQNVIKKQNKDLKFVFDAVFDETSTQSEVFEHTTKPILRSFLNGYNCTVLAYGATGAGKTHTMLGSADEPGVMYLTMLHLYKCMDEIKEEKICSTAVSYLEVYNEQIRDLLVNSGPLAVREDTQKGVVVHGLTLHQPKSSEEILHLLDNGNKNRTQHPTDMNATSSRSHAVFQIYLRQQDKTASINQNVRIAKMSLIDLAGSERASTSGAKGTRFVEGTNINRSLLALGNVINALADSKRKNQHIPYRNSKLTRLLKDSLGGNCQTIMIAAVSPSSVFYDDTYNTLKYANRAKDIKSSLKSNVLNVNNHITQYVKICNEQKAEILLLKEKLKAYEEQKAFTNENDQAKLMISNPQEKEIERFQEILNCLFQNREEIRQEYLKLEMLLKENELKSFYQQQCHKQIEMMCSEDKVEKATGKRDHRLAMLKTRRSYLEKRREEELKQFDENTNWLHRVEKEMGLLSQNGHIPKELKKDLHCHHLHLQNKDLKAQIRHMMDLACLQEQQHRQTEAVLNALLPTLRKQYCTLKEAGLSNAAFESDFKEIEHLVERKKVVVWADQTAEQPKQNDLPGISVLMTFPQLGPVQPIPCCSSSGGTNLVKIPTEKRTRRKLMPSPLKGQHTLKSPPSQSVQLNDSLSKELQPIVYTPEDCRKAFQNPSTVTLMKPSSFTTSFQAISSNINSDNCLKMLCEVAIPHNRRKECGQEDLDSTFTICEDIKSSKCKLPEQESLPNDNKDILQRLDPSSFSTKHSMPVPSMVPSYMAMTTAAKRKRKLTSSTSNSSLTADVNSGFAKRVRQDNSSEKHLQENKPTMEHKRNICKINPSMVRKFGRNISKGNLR
Briefly: KIF18A enzyme activity test (ADP Glo). Format: biochemical. The conditions noted are these: ADP Glo luminescence, 60 min reaction at room temperature, 1% DMSO. On the procedure:
Test name: KIF18A enzyme activity test
• 1) Compound dilution and treatment: The final concentrations of AM-5308: 10000, 3333.3, 1111.1, 370.3, 123.4, 41.1, 13.7, 4.5, 1.5, 0.5 nM, the final testing concentrations of the testing compound: 10000, 3333.3, 1111.1, 370.3, 123.4, 41.1, 13.7, 4.5, 1.5 and 0.5 nM. • 2) To each well of the reaction plate, 100 nL of the diluted compound stock solution was transferred using Echo 655. The final concentration of DMSO was 1%. • 3) The reaction plate was sealed with a sealing membrane and centrifuged at 1000g for 1 min. • 4) A 2× enzyme solution was prepared with 1× reaction buffer. • 5) To each well of the reaction plate, 5 µL of 2×enzyme solution was added. The plate was sealed with a sealing membrane, centrifuged at 1000g for 1 min and left at room temperature for 15 min. • 6) A 2× ATP solution was prepared with 1× reaction buffer. • 7) To the reaction plate, 5 µL of 2×ATP solution was added, the plate was centrifuged at 1000g for 1 min, and the reaction was started. • 8) The system was allowed to react at room temperature for 60 min. • 9) 10 µL of ADP Glo reagent was added. The system was centrifuged at 1000 g for 1 min and incubated at room temperature for 60 min. • 10) 20 µL of kinase detection reagent was added. The system was centrifuged at 1000 g for 1 min, and incubated at room temperature for 60 min. • 11) The system was centrifuged at 1000 g for 1 min. • 12) The luminescence signals were read on Envision 2104.
The inhibition percentage is calculated as follows: %inhibition = 100−(Signalcmpd−SignalAve_PC)/(SignalAve_VC−SignalAve_PC) × 100 [formula] • Signalcmpd: Average value of the test compound on the reaction plate. • SignalAve_PC: Average value of the positive control (AM-5308) on the reaction plate. • SignalAve_VC: Average value of the negative control (DMSO) on the reaction plate.
IC50 was calculated and the dose-effect curve was fit: The IC50 of the compound was obtained by non-linear fitting formula with GraphPad 8.0.
Z factor > 0.5; S/B > 2. Table 2 Enzyme activity data for the compound of the present application
In general terms: In ADP-Glo the light output rises with the ADP produced.
For `O=C(Nc1cccc2c1nc1n2CCC1(F)F)c1ccc(NS(=O)(=O)CCO)cc1N1CCC2(CC1)CC2` [Compound 94, N-(3,3-difluoro-2,3-dihydro-1H-benzo[d]pyrrolo[1,2-a]imidazol-5-yl)-4-(2-hydroxyethanesulfonylamino)-2-(6-azaspiro[2.5]octan-6-yl)benzamide], the concentration for half-maximal inhibition (IC50) stood at 15.1 nM.
